From patent publication US20220411422A1, “ERBB RECEPTOR INHIBITORS” (Dizal (Jiangsu) Pharmaceutical Co., Ltd., priority 2018, published 2022)

Assays:
[1] = molecular target: T1, pHER2 (Homo sapiens, UniProt P04626); assay: pHER2 cellular activity in BT474c1 cell line; format: cell-based
T1 construct: pHER2 in cells expressing HER2; endogenous in cells; host or cells: BT474c1
Experimental: A compound's activity of selective inhibition for HER2 wild type amplification can be evaluated with BT474 cell line (ATCC® HTB-20™). The cell line expressed phosphorylated HER2 protein and its proliferation depended on the amplified gene, which could be used for in vitro PD and anti-proliferation assays.
The compounds' inhibition of target modulation were determined as follows: BT474 cells were sorted in 96 well plates (20000 cells/well) with the DMEM medium containing 10% FBS overnight and then treated with tested compounds at a series of concentrations (3 μM, 0.3 μM, 0.1 μM, 0.03 μM, 0.01 μM, 0.003 μM, 0.001 μM, 0.0001 μM). The plates were incubated for 4 h at 37° C. with 5% CO2 and then the HER2 (Y1248) phosphorylation level of cells in each well were measured with MSD Kit (Phospho-ErbB2 (Tyr1248) Assay Whole Cell Lysate Kit: Cat #K151CLD-3). The assay is a electrochemiluminescent method (MESO SCALE DISCOVERY) for determining both phosphorylated and total HER2 of cells with an MSD SECTOR® Imager and then the ratio of p-HER2/total HER2 can be generated by the machine. The percentage of inhibition was got from formula: % inhibition=100×[1−(ratio of sample well−ratio of Min ctrl well)/(ratio of Max−Ratio of Min ctrl well)]. The IC50 values were further calculated as the compounds concentration required for 50% inhibition in best-fit curves using Prism GraphPad 7.0 or Microsoft Xlfit software.

[2] = Blood brain barrier penetration assay in rats (short oral absorption model with blood, plasma and brain binding); format: in vivo; conditions: male, Han Wistar, CSF, Table 5, rat, read-out: Kp,uu,CSF
Experimental: In vitro blood, plasma and brain binding assay was carried out with equilibrium dialysis device. […] At the end of incubation, a 50 μL aliquot from the receiver side and a 5 μL from the donor chamber were taken. The 5 μL sample was further diluted with 45 μL of blank blood, plasma or brain homogenate. Paired samples were matrix-matched with either buffer or blank matrix, and mixed for 2 min, and then precipitated with 150 μL cold acetonitrile with 100 ng/mL tolbutamide as internal standard. After centrifuging at 4000 rpm for 20 min, supernatant was diluted with 0.1% formic acid aqueous solution and analyzed for LC/MS/MS (API 4000, Applied Biosystems, Foster City). […] D is dilution factor. […] A Short oral absorption (SOA) model is an in-vivo screening model to identify brain penetration of a compound. Six male Han Wistar rats purchased from Beijing Vital River were orally dosed with the compound. […] Brain tissue was harvested and homogenized in 3× volume of 100 mM phosphate buffered saline (pH7.4). All samples were stored at ˜−70° C. prior to LC/MS/MS analysis. Standards were prepared by spiking blank plasma, blood, brain homogenate and artificial CSF. […] After 2 min vortex and 5 min centrifugation at 14,000 rpm, supernatant was analyzed by LC/MS/MS (API 4000, Applied Biosystems, Foster City). Two sets of standard curves were run at the beginning and end of each batch from blood sample analysis. For brain and CSF samples, one standard curve was analyzed along with test samples. Total brain levels, expressed as brain/blood ratio (Kp,brain) were measured by AUC(brain)/AUC(blood or plasma) in rodents after oral administration. Similarly, CSF levels represented by a ratio of CSF/blood exposure (Kp,CSF) were determined by AUC(CSF)/AUC(blood or plasma). Free fraction of test compound in biological matrix was determined by in vitro blood and brain binding assay. Kp,uu brain and Kp,uu CSF was calculated by the following equation: Kp,uu brain=AUC(brain)/AUC(blood or plasma)×(fubrain/fublood/plasma) and […] Moreover, the ability of Compounds 6 and 16 to cross BBB was assessed in both rat and monkey by measuring unbound brain-to-plasma partition ratio (Kpuu,brain) and unbound CSF-to-plasma partition ratio (Kpuu,CSF) with the method mentioned above.

[3] = Blood brain barrier penetration assay in monkeys; format: in vivo; conditions: CSF, oral; Table 5; monkey
Experimental: In vitro blood, plasma and brain binding assay was carried out with equilibrium dialysis device. Diluted blood (1:1 with DPBS pH7.4), EDTA-anticoagulated plasma, and brain homogenate (1:3 with DPBS pH7.4) were spiked with 5 μM test compound (in triplicate) and dialyzed against equal volume of 150 μL 100 mM PBS buffer (pH7.4) at 37° C. for appropriate equilibration time in a slowly rotated plate. At the end of incubation, a 50 μL aliquot from the receiver side and a 5 μL from the donor chamber were taken. The 5 μL sample was further diluted with 45 μL of blank blood, plasma or brain homogenate. […] After centrifuging at 4000 rpm for 20 min, supernatant was diluted with 0.1% formic acid aqueous solution and analyzed for LC/MS/MS (API 4000, Applied Biosystems, Foster City). Unbound fraction (fu) of test compound were calculated by the ratio of the buffer side response to the brain homogenate/plasma/blood side response, and unbound fraction (fu,bl, fu,pl and fu,br) of test compound in non-diluted blood and tissue were calculated from measured fu in homogenate and diluted blood with the following equation: fu,bl (fu,br)=(1/D)/[(1/fu−1)+1/D)]. […]
Total brain levels, expressed as brain/blood ratio (Kp,brain) were measured by AUC(brain)/AUC(blood or plasma) in rodents after oral administration. […]
Kp,uu brain and Kp,uu CSF was calculated by the following equation: […]

T1 sequence (P04626 23-1255): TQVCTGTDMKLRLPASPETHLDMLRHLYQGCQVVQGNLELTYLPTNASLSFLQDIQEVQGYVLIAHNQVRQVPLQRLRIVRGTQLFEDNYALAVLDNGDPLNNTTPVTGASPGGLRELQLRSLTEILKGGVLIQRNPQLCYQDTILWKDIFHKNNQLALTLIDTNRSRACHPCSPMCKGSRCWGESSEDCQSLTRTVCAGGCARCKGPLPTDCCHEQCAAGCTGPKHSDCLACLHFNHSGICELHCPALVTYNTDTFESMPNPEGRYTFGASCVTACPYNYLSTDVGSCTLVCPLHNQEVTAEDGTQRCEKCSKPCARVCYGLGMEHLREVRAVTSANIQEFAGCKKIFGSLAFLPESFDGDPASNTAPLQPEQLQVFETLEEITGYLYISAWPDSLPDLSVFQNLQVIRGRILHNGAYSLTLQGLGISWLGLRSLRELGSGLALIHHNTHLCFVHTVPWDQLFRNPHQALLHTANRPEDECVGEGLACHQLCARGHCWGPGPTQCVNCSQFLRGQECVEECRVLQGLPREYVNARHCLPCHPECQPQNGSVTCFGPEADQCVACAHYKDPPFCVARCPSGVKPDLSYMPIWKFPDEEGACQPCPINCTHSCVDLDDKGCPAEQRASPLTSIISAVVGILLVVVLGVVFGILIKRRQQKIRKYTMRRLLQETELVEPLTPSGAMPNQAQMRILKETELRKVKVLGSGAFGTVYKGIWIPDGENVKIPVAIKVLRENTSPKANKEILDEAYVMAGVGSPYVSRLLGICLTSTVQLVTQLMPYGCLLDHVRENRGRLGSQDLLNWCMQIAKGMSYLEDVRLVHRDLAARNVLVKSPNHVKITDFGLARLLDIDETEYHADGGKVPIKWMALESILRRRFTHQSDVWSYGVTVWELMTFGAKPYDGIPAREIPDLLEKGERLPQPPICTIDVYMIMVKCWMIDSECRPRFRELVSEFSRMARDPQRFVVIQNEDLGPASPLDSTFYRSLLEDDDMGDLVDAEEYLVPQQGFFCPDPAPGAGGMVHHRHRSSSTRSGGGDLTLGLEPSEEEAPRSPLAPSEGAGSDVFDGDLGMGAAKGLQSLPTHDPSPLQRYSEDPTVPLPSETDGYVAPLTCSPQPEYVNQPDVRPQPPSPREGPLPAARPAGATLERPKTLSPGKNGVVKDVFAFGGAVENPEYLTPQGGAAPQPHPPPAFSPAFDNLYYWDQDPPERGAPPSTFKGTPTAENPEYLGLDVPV

Structure (SMILES): COc1cc(O[C@H]2CCN(C)CC2(F)F)c2c(Nc3ccc(Oc4ccn5ncnc5c4)c(C)c3)ncnc2c1 (single isomer, unassigned) [Compound 6]
- selectivity between pHER2 in cells expressing HER2 and pEGFR in cells expressing wild type EGFR [1]: over 300 fold
- IC50 ([1]; BT474c1 cell line): 4.4 nM
- Kp uu [2]: 0.87
- Kp uu [3]: 4.1
